# In US8030453B2, “Methods of making an antibody that binds a chemerin polypeptide” (Euroscreen S.A., priority 2001, dated 2011):
# Where two headings read alike, the source gives them in different places. Peptide text beside a SMILES is read from it.
# T1: ChemerinR (Homo sapiens, UniProt Q99788)
# T1 construct: This fragment was subcloned into the pcDNA3 (Invitrogen) vector; expressed in transfected cells; CHO-K1 elsewhere)
# T1 sequence (Q99788 3-373): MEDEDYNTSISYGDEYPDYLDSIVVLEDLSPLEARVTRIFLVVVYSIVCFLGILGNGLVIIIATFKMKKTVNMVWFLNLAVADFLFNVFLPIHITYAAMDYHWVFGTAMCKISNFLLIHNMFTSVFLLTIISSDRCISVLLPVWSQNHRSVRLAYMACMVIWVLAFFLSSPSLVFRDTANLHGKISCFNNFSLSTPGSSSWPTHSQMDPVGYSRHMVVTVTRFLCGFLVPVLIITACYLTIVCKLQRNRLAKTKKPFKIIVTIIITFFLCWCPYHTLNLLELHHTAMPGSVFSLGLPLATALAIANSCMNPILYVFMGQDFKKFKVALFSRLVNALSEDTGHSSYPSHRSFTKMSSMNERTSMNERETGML
# T2: ChemerinR expressing CHO-K1 cells (Homo sapiens, UniProt Q99788)
# T2 construct: This fragment was subcloned into the pcDNA3 (Invitrogen) vector; expressed in transfected cells; host or cells: CHO-K1
# T2 sequence (Q99788 3-373): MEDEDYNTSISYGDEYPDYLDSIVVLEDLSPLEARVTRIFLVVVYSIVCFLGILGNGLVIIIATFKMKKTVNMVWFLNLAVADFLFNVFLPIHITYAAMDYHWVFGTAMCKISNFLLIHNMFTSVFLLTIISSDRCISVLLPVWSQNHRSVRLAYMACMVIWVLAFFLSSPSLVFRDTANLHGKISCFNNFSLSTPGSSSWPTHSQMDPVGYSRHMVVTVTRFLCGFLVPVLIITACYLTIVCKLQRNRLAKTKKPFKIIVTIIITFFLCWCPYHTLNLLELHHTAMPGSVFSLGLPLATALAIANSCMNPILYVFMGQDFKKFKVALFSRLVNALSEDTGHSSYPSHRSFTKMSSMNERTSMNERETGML
# T3: human ChemerinR (ChemR23) expressed in CHO-K1 cells (Homo sapiens, UniProt Q99788)
# T3 construct: This fragment was subcloned into the pcDNA3 (Invitrogen) vector; expressed in transfected cells; host or cells: CHO-K1 (co-expressing mitochondrial apoaequorin and Galpha16)
# T3 sequence (Q99788 3-373): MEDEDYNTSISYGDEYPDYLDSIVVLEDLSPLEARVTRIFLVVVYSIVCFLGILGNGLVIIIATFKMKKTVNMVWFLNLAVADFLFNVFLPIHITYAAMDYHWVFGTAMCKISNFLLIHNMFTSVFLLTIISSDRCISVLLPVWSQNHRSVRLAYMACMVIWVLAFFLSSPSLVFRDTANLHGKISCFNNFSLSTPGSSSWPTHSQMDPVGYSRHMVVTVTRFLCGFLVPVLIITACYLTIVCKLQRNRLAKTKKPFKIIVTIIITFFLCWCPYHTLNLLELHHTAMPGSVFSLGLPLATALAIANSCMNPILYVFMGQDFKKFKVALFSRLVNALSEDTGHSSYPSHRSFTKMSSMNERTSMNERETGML
# Experiments:
# [1] = target: T1, ChemerinR; assay: Calcium flux - Aequoscreen assay; format: cell-based
# Protocol: ChemerinR expressing clones were transfected to coexpress mithochondrial apoaequorin and Gα16. Cells in mid-log phase, grown in media without antibiotics 18 hours prior to the test, were detached by gentle flushing with PBS-EDTA (5 mM EDTA), recovered by centrifugation and resuspended in “BSA medium” (DMEM/HAM's F12 with HEPES, without phenol red+0.1% BSA). Cells were then counted, centrifuged and resuspended in a 15 ml Falcon tube at a concentration of 1×10^6 cells/ml.
# The Falcon tube, wrapped in aluminium foil, was then placed on a vertical rotating wheel and incubated at room temperature (temperature should be maintained below 22° C.) overnight in order to reconstitute active aequorin.
# Cells were then diluted 1/10 in “BSA-medium” and incubated as described above for 60 min. Reference ligands were diluted in “BSA-medium” and distributed in a 96-well plate (50 μl/well). For each measurement, 50 μl of cells (i.e. 5 000 cells) were injected into each well of the plate containing the ligands, and the emitted light is recorded (FDSS, Hamamatsu) during 20 seconds following cells injection. Results were expressed as Relative Light Units (RLU).
# The intensity of the emitted light was integrated, yielding for each well one value representative of the emitted light.
# [2] = system: wild-type CHO-K1 cells; assay: signalling assays on wild-type CHO-K1 cells; format: cell-based, hamster
# [3] = system: human chemerinR in CHO-K1 cells; assay: intracellular cascade assays (calcium release, cAMP accumulation, p42/p44 MAP kinase phosphorylation) in CHO/chemerinR cells; format: cell-based
# [4] = system: human monocyte-derived dendritic cells and macrophages; assay: chemotaxis (48-well microchemotaxis chamber) of primary cells; format: cell-based
# Protocol: (§1) Monocyte-derived DCs were generated by GM-CSF (50 ng/ml) and IL-13 (20 ng/ml) stimulation as previously described (17). Maturation of DCs was achieved following stimulation with 100 ng/ml LPS. Macrophages were obtained by incubating monocytes in Petriperm dishes (Haereus) for 6 days in RPMI supplemented with 10% FCS and 10 ng/ml MCSF. Cell migration was evaluated using a 48-well microchemotaxis chamber technique as described (18). For Ca2+ mobilization assays, monocyte-derived DCs or macrophages (10^7 cells/ml in HBSS without phenol red but containing 0.1% BSA) were loaded with 5 μM FURA-2 (Molecular Probes) for 30 min at 37° C. in the dark. The loaded cells were washed twice, resuspended at 10^6 cells/ml, kept for 30 min at 4° C. in the dark with or without the blocking 4C7 monoclonal antibody (10 μg/ml), and transferred into the quartz cuvette of a luminescence spectrometer LS50B (PerkinElmer).
# [5] = system: monocyte-derived immature dendritic cells and macrophages; assay: Ca2+ mobilization (FURA-2) in primary cells; format: cell-based, human; conditions: similar for macrophages, Chemerin 30 nM
# Protocol: as §1
# [6] = system: C5a and C3a receptors, CRTH2, GPR1, other characterized and orphan receptors, most chemokine receptors; assay: reactivity of related and other receptors to Chemerin; format: cell-based; conditions: purified human Chemerin
# [7] = target: T2, ChemerinR expressing CHO-K1 cells; assay: competition binding assay with 125I-[…] tracer; conditions: mean±s.e.m for 3 independent experiments
# Protocol: ChemerinR expressing CHO-K1 cells were collected from plates with PBS supplemented with 5 mM EDTA, gently pelleted for 2 min at 1000×g, and resuspended in binding buffer (50 mM HEPES, pH 7.4, 1 mM CaCl2, 5 mM MgCl2, 0.5% BSA). […] Total binding was measured in the absence of competitor, and nonspecific binding was measured in the presence of a 100-fold excess of unlabeled ligand. Samples were incubated for 90 min at 27° C. and then bound tracer was separated by filtration through GF/B filters presoaked in 0.5% BSA. Filters were counted in a […]-scintillation counter. Binding parameters were determined with the PRISM software (Graphpad Software) using nonlinear regression applied to a one-site competition model.
# [8] = target: T3, human ChemerinR (ChemR23) expressed in CHO-K1 cells; assay: aequorin-based intracellular Ca2+ release assay; format: cell-based
# Protocol: Briefly, ChemerinR-expressing clones are transfected to coexpress mitochondrial apoaequorin and Gα16. Cells are incubated with 5 μM Coelenterazine H (Molecular Probes) for 4 hours at room temperature, washed in DMEM-F12 culture medium and resuspended at a concentration of 0.5×10^6 cells/ml. Cells are then mixed with test agonist peptides and light emission by the aequorin is recorded with a luminometer for 30 sec. Results are expressed as Relative Light Units (RLU). Controls include assays using membranes isolated from cells not expressing ChemerinR (mock-transfected), in order to exclude possible non-specific effects of the candidate compound.
# ChemerinR-expres sing clones have been obtained by transfection of CHO-K1 cells to coexpressing mitochondrial apoaequorin and Gα16, limiting dilution and selection by northern blotting. Positive clones were used for screening with human ovarian cancer ascites extracts prepared as described above. […] Briefly, cells were collected from plates in PBS containing 5 mM EDTA, pelleted and resuspended at 5×10^6 cells/ml in DMEM-F12 medium. Cells were incubated with 5 μM Coelenterazine H (Molecular Probes) for 4 hours at room temperature. Cells were then washed in DMEM-F12 medium and resuspended at a concentration of 0.5×10^6 cells/ml. Cells were then mixed with test agonist peptides or plates containing tissue extracts and the light emission was recorded for 30 sec using a Microlumat luminometer (Perkin Elmer). Results are expressed as Relative Light Units (RLU).
# [9] = 100 nM; culture medium or conditioned media of CHO-K1, Cos-7 or HEK293 cells
# Protocol: In order to investigate whether proteolytic activation of prochemerin is performed intracellularly in the secretory pathway, or is an extracellular process, potentially regulated by the activation of extracellular proteases, we tested the activation of human purified prochemerin in the medium of cultured cells and conditioned media.
# [10] = system: B16F0 melanoma cell line; assay: in vitro proliferation of transfected B16F0 cells (BrdU, cell cycle, cell counting); format: cell-based, mouse; conditions: expression of Chemerin in B16F0 cells
# Protocol: (§2) B16-F0 melanoma cells (ATCC) were transfected with the pEFIN3-mouse chemerin plasmid using FuGene6, and selected with 800 μg/ml G418. Clones were characterized by assaying the conditioned medium on chemerinRexpres sing cells. In vitro proliferation rate was determined by BrdU incorporation as described30. For in vivo studies, cells were washed twice with PBS, and grafted (6×10^5 cells in 0.1 ml PBS) subcutaneously into the back of 10-week-old C57B16 mice (5 to 11 mice per group, Harlan, The Netherlands). Perpendicular tumor diameters (D and d) were measured every 2 days, and the volume was estimated as V=π(d/2)(D/2)(d/2). Statistical analysis was performed by using the unpaired non parametric Mann-Whitney test. For microscopic analysis, tumors were embedded in OCT, snap-frozen in −80° C. isopentane and cut at 12 μm. Sections were stained with hematoxylin-eosin (HE) for routine analysis. All animal procedures were approved by the ethical committee of the Medical School of the Universite Libre de Bruxelles.
# [11] = system: B16-F0 melanoma cells; assay: B16-F0 melanoma model, subcutaneous graft in C57Bl6 mice; format: in vivo, mouse
# Protocol: as §2
molecule,measurement,setting,value
C[C@H](NC(=O)[C@H](Cc1ccccc1)NC(=O)[C@H](CCC(N)=O)NC(=O)CNC(=O)[C@@H]1CCCN1C(=O)[C@H](Cc1ccccc1)NC(=O)[C@@H](N)Cc1ccc(O)cc1)C(=O)N[C@@H](Cc1ccccc1)C(=O)N[C@@H](CC(=O)O)C(N)=O (H-YFPGQFAFD-NH2; N-terminus assumed),EC50,[1],0.0043 µM
CC(C)C[C@H](NC(=O)[C@@H](N)Cc1ccccc1)C(=O)N1CCC[C@H]1C(=O)NCC(=O)N[C@@H](CCC(N)=O)C(=O)N[C@@H](Cc1ccccc1)C(=O)N[C@@H](C)C(=O)N[C@@H](Cc1ccccc1)C(=O)N[C@@H](CO)C(=O)O (H-FLPGQFAFS-OH; N-terminus and C-terminus assumed),EC50,[1],0.0291 µM
"recombinant Chemerin: human recombinant Chemerin expressed in CHO-K1 cells, C-terminally truncated after serine 157 (137 amino acids)",activity on wild-type CHO-K1 cells,[2],No activity
same,"concentrations causing intracellular calcium release, inhibition of cAMP accumulation, phosphorylation of p42 and p44 MAP kinases",[3],low nanomolar concentrations
same,concentration of maximal chemotactic activity,[4]; immature dendritic cells,1 nM
same,in vitro migration,[4]; macrophages and immature dendritic cells,promoted in vitro migration
same,chemotaxis,[4]; mature dendritic cells,no chemotaxis
same,intracellular Ca2+ levels,[5],increased
same,reactivity of other receptors,[6],totally unreactive
C[C@H](NC(=O)[C@H](Cc1ccccc1)NC(=O)[C@H](CCC(N)=O)NC(=O)CNC(=O)[C@@H]1CCCN1C(=O)[C@H](Cc1ccccc1)NC(=O)[C@H](Cc1ccccc1)NC(=O)[C@H](Cc1ccccc1)NC(=O)[C@H](CO)NC(=O)[C@H](Cc1c[nH]cn1)NC(=O)[C@@H](N)Cc1ccc(O)cc1)C(=O)N[C@@H](Cc1ccccc1)C(=O)N[C@@H](CO)C(=O)O (H-YHSFFFPGQFAFS-OH; N-terminus and C-terminus assumed),Ki,[7]; Ki,0.0121 ± 0.00497 µM
same,Ki,[7]; pKi,0.0112 µM
same,EC50,[8],28 nM
CC[C@H](C)[C@H](N)C(=O)N[C@@H](Cc1ccccc1)C(=O)N1CCC[C@H]1C(=O)NCC(=O)N[C@@H](CCC(N)=O)C(=O)N[C@@H](Cc1ccccc1)C(=O)N[C@@H](C)C(=O)N[C@@H](Cc1ccccc1)C(=O)N[C@@H](CO)C(=O)O (H-IFPGQFAFS-OH; N-terminus and C-terminus assumed),EC50,[1],0.0258 µM
CC(C)C[C@H](N)C(=O)N[C@@H](Cc1ccccc1)C(=O)N1CCC[C@H]1C(=O)NCC(=O)N[C@@H](CCC(N)=O)C(=O)N[C@@H](Cc1ccccc1)C(=O)N[C@@H](C)C(=O)N[C@@H](Cc1ccccc1)C(=O)N[C@@H](CO)C(=O)O (H-LFPGQFAFS-OH; N-terminus and C-terminus assumed),EC50,[1],0.0663 µM
Pertussis toxin [reference compound],effect on Chemerin signalling effects,[3]; pretreatment,inhibited
same,effect on Chemerin-induced migration,"[4]; macrophages and dendritic cells, Pertussis toxin 3 μg/ml, 4C7 10 μg/ml",completely abolished
CC(C)[C@H](NC(=O)[C@@H](N)Cc1ccc(O)cc1)C(=O)N1CCC[C@H]1C(=O)NCC(=O)N[C@@H](CCC(N)=O)C(=O)N[C@@H](Cc1ccccc1)C(=O)N[C@@H](C)C(=O)N[C@@H](Cc1ccccc1)C(=O)N[C@@H](CO)C(=O)O (H-YVPGQFAFS-OH; N-terminus and C-terminus assumed),EC50,[1]; read-out: EC50,0.0438 µM
"prochemerin: unprocessed form of the protein retaining the six C-terminal aminoacids (143 amino acids) (protein, listed as Homo sapiens) ELTEAQRRGLQVALEEFHKHPPVQWAFQETSVESAVDTPFPAGIFVRLEFKLQQTSCRKRDWKKPECKVRPNGRKRKCLACIKLGSEDKVLGRLVHCPIETQVLREAEEHQETQCLRVQRAGEDPHSFYFPGQFAFSKALPRS",activity on wild-type CHO-K1 cells,[2],No activity
same,EC50,"[8]; CHO cells expressing ChemerinR, aequorin assay, read-out: EC50 for activation of ChemerinR",393 ± 116 nM
same,EC50,"[8]; truncated Chemerin peptides, values in nM, read-out: Mean EC50",393 ± 116 nM
same,conversion into a form active on ChemerinR,[9],fully converted
mouse Chemerin: mouse Chemerin expressed by B16F0 melanoma cells transfected with a bicistronic expression vector containing the mouse Chemerin cDNA (protein) EPELSETQRRSLQVALEEFHKHPPVQLAFQEIGVDRAEEVLFSAGTFVRLEFKLQQTNCPKKDWKKPECTIKPNGRRRKCLACIKMDPKGKILGRIVHCPILKQGPQDPQELQCIKIAQAGEDPHGYFLPGQFAFSRALRTK,growth rate of the cell lines,[10],did not modify the growth rate
same,average reduction of size of developing tumors,[11]; 21-24 days after the graft of Chemerin-expressing cells vs control,70%
same,mice that did not develop tumors,"[11]; three series combined, up to four weeks after graft, 0/24 in control group, p<0.05",5 out of 24
